Test results: patent publication US4563306A, “Peptides and process for preparing the same” (Tanabe Seiyaku Co., Ltd., priority 1983, dated 1986)

Tests used:
Assay type in all cases: in vivo
[1] = system: Serum TSH levels; test: TSH-releasing activity (serum TSH by double-antibody radioimmunoassay after i.v. administration); details: male JCL: SD rats, intravenous, serum TSH 15 minutes after administration; parallel line assay, TRH = 1
Experimental: (1) TSH-releasing activity:
A test compound dissolved in a 0.1% BSA (bovine serum albumin)-containing physiological saline was intravenously administered to a group of five male JCL: SD rats. Fifteen minutes after the administration, blood was taken from the abdominal aorta under anesthesia. Serum TSH levels were determined by the double-antibody radioimmunoassay method (Midgley et al., Endocrinology., 79, 10 (1966)). The BSA-containing physiological saline was used for control instead of the test compound solution.

[2] = system: male STD/ddy mice; test: Antagonistic effect on pentobarbital anesthesia; details: pentobarbital sodium 55 mg/kg i.p., test compound intravenous 10 minutes later, duration of anesthesia, parallel line assay, TRH = 1
Experimental: (2) Antagonistic effect on pentobarbital anesthesia:
Pentobarbital sodium was intraperitoneally administered to a group of ten male STD/ddy mice at a dose of 55 mg/kg. Ten minutes after the administration of pentobarbital sodium, a test compound dissolved in physiological saline was intravenously administered to the mice which had lost the righting reflex. The duration of anesthesia was measured as the time from the end of administration of the test compound until the righting reflex regained. Physiological saline was used for control instead of the test compound solution (Prange et al., Life Science, 14, 447-455, (1974)).

[3] = system: male STD/ddy mice; test: Increasing effect on spontaneous locomotor activity (Ambulometer); details: intraperitoneal, activity measured for 60 minutes, parallel line assay, TRH = 1
Experimental: (3) Increasing effect on spontaneous locomotor activity:
A group of five male STD/ddY mice were individually placed in Ambulometer (i.e., an apparatus for measuring spontaneous locomotor activity; manufactured by OHARA IKA Co.) for 30 minutes to acclimatize to the apparatus. Thereafter, a test compound dissolved in physiological saline was intraperitoneally administered to the mice and, immediately after administration of the test compound, the spontaneous locomotor activity was measured for 60 minutes. Physiological saline was used for control instead of the test compound solution.

[4] = system: male STD/ddy mice; test: Antagonistic effect on reserpine-induced hypothermia; details: intraperitoneal, rectal temperature 30, 60, 120 and 180 minutes after administration, parallel line assay, TRH = 1
Experimental: (4) Antagonistic effect on reserpine-induced hypothermia:
A test compound dissolved in physiological saline was intraperitoneally administered to a group of five male STD/ddy mice, and the rectal temperature was measured 30, 60, 120 and 180 minutes after the administration of the test compound. The increase in temperature in the treated group was compared to that in the control group which received physiological saline instead of the test compound solution.

[5] = system: male STD/ddy mice; test: Potentiating effect on methamphetamine-induced hyperlocomotion; details: methamphetamine 0.2 mg/kg and test compound intraperitoneally at the same time, locomotor activity for 60 minutes, parallel line assay, TRH = 1
Experimental: (5) Potentiating effect on methamphetamine-induced hyperlocomotion:
A group of ten male STD/ddY mice were individually placed in Ambulometer for 30 minutes to acclimatize to the apparatus.

Structure (SMILES) | TSH-releasing activity, potency ratio relative to TRH [1] | Antagonistic effect on pentobarbital anesthesia, potency ratio relative to TRH [2] | Increasing effect on spontaneous locomotor activity, potency ratio relative to TRH [3] | Antagonistic effect on reserpine-induced hypothermia, potency ratio relative to TRH [4] | Potentiating effect on action of methamphetamine, potency ratio relative to TRH [5]
NC(=O)[C@@H]1CCCN1C(=O)[C@H](Cc1c[nH]cn1)NC(=O)[C@@H]1CCC(=O)N1 [TRH, L-pyroglutamyl-L-histidyl-L-prolinamide] | 1 | 1 | 1 | 1 | 1
NC(=O)[C@@H]1CCCN1C(=O)[C@H](Cc1c[nH]cn1)NC(=O)[C@@H]1Cc2ccccc2C(=O)N1 [N^α -[(3 S)-1-oxo-1,2,3,4-tetrahydroisoquinoline-3-carbonyl]-L-histidyl-L-prolinamide] | 1 | 10 | 10 | 10 | 10
